Assay results taken from US12281122B1, “PI3K inhibitors” (Cogent Biosciences, Inc., priority 2023, dated 2025).
Read-outs that look alike come from different tables or passages of the source.

What was measured:
PI3Kα = PI3Kα (Homo sapiens, UniProt P42336); test: PI3Kα enzyme assay (Transcreener ADP2 TR-FRET Red Assay); type: biochemical; conditions: purified recombinant full-length protein; 2 hours pre-incubation with compound; read-out: PI3Kα WT IC50
Method in brief: (§1)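 Purified recombinant full-length enzymes pre-incubated 2 h at room temperature with compounds (11-point 1:3 dilutions, typically 50,000–0.85 nM), then started with ATP/PI(4,5)P2 diC8 and run 60 min at room temperature in 40 mM HEPES pH 7.5, 20 mM NaCl, 25 mM MgCl2, 0.01% Triton X-100. ADP detected by TR-FRET 665/615 ratio; IC50 from four-parameter fit of percent of control.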

PI3Kα H1047R = PI3Kα H1047R (Homo sapiens, UniProt P42336, H1047R); test: PI3Kα H1047R enzyme assay (Transcreener ADP2 TR-FRET Red Assay); type: biochemical; conditions: purified recombinant full-length protein; 2 hours pre-incubation with compound
PI3Kα H1047R, sequence (P42336 whole entry H1047R): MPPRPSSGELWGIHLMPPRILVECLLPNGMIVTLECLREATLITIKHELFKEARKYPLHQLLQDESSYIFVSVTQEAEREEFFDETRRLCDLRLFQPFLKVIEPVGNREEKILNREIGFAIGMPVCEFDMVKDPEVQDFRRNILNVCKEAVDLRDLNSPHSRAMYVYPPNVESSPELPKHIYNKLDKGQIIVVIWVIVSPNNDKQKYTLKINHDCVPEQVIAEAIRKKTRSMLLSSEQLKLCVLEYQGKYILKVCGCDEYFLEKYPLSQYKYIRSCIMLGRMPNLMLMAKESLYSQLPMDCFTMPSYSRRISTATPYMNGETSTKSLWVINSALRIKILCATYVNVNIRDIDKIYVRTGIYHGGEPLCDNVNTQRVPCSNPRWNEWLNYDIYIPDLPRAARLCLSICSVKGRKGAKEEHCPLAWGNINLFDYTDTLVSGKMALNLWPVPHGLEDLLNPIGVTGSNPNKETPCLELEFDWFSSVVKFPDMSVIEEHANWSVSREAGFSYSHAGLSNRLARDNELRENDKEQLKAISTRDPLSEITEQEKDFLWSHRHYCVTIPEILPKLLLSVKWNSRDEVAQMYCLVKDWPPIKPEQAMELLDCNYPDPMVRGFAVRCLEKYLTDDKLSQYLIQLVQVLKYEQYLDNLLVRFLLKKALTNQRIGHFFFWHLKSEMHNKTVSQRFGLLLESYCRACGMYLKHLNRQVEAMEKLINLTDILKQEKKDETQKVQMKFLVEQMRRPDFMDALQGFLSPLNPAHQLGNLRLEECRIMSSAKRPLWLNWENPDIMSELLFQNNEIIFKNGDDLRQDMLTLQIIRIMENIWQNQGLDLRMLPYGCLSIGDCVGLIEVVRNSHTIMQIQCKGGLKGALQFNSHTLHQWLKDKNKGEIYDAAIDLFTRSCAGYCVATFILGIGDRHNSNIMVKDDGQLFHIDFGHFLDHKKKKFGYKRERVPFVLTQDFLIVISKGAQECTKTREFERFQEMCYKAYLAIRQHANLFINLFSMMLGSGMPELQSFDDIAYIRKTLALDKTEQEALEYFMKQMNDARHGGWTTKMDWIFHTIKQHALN
PI3Kα H1047R, sequence (P27986 2-724 partner): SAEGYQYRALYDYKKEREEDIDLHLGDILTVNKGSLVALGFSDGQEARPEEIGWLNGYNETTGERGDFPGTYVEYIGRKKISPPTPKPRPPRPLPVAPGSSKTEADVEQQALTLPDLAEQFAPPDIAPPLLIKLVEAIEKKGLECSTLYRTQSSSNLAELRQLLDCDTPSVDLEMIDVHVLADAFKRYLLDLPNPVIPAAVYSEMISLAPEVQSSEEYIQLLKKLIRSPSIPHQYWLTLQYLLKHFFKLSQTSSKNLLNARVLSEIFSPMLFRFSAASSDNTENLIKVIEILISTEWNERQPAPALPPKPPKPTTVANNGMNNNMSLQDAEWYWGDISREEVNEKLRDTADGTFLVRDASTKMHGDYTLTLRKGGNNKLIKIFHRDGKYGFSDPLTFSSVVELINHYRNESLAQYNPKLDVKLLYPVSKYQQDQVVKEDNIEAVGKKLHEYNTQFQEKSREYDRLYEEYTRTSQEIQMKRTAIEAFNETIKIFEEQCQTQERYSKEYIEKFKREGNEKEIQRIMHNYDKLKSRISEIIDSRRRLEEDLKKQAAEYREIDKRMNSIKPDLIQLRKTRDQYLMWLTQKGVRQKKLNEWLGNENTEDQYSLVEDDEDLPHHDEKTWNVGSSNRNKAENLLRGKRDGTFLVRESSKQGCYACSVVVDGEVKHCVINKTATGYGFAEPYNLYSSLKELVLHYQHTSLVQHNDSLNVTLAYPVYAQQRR
Method in brief: as §1

[1] = test system: T47D (PI3Kα-H1047R) cell line; test: HTRF phospho-AKT(S473) cell assay in T47D cells; type: cell-based, human; conditions: Homo sapiens; T47D (PI3Kα-H1047R) cells, HTRF phospho-AKT(S473), 2 hours compound incubation
Method in brief: (§2)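 Cells plated overnight (T47D in RPMI/10% FBS/0.2 units/mL insulin; SKBR3 in McCoy's 5A/10% FBS), then given 12-point 1:3 compound series (top 5 μM T47D, 10 μM SKBR3; ≤0.5% DMSO) for 2 h at 37° C. SKBR3 stimulated with 70 ng/ml PDGF-BB for final 15 min. Lysate pAKT(S473) by HTRF; IC50 calculated.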

[2] = test system: SKBR3 (PI3Kα-Wild Type) cell line; test: HTRF phospho-AKT(S473) cell assay in SKBR3 cells; type: cell-based, human; conditions: Homo sapiens, SK-BR-3; SKBR3 (PI3Kα-Wild Type) cells, HTRF phospho-AKT(S473), 2 hours compound incubation, PDGF-BB stimulated
Method in brief: as §2

Mouse PK, IV and PO = conditions: in vivo; for clearance: read-out: PK-Mouse: IV Cl; for bioavailability: read-out: PK-Mouse: PO F (%)
[3] = IV dose 3 mg/kg, read-out: PK-Mouse: IV-AUCinf
[4] = PO dose 30 mg/kg, 20% Captisol (aq), fed
[5] = PO dose 30 mg/kg, 20% Captisol (aq), fed, read-out: PK-Mouse: PO AUCinf

PI3Kα, sequence (P42336 whole entry): as the sequence (P42336 whole entry H1047R) above, with R1047H counted along it
PI3Kα, sequence (P27986 2-724 partner): as the sequence (P27986 2-724 partner) above

IC50 (PI3Kα) [nM]	IC50 (PI3Kα H1047R) [nM]	IC50 [1] [nM]	IC50 [2] [nM]	clearance (Mouse PK, IV and PO; IV dose 3 mg/kg) [mL/min/kg]	AUC(0-inf) (Mouse PK, IV and PO; [3]) [ng·h/mL]	Cmax (Mouse PK, IV and PO; [4]) [ng/mL]	AUC(0-inf) (Mouse PK, IV and PO; [5]) [ng·h/mL]	bioavailability (Mouse PK, IV and PO; [4]) [%]	Compound
≥ 1000	500 to 1000	< 250	1000 to 5000	0.74	67500	35500	548000	81	Cc1cc([C@@H](C)Nc2ccc(Cl)nc2C(=O)NS(C)(=O)=O)c2nc(N3Cc4ccc(F)cc4C3)n(C)c(=O)c2c1 [Compound 1, (R)-6-chloro-3-((1-(2-(5-fluoroisoindolin-2-yl)-3,6-dimethyl-4-oxo-3,4-dihydroquinazolin-8-yl)ethyl)amino)-N-(methylsulfonyl)picolinamide]
–	–	–	–	24.3	2070	2490	8850	43	Cc1cc([C@@H](C)Nc2ccc(Cl)nc2C(=O)O)c2nc(N3Cc4ccc(F)cc4C3)n(C)c(=O)c2c1 [Compound 1 acid derivative, (R)-6-chloro-3-((1-(2-(5-fluoroisoindolin-2-yl)-3,6-dimethyl-4-oxo-3,4-dihydroquinazolin-8-yl)ethyl)amino)picolinic acid, reference compound]
≥ 1000	< 100	500 to 1000	1000 to 5000	–	–	–	–	–	C[C@@H](Nc1ccc(Cl)nc1C(=O)NS(C)(=O)=O)c1cccc2c(=O)n(C)c(N3Cc4ccc(F)cc4C3)nc12 [Compound 23, (R)-6-chloro-3-((1-(2-(5-fluoroisoindolin-2-yl)-3-methyl-4-oxo-3,4-dihydroquinazolin-8-yl)ethyl)amino)-N-(methylsulfonyl) picolinamide]
≥ 1000	≥ 1000	500 to 1000	1000 to 5000	–	–	–	–	–	Cc1cc([C@@H](C)Nc2ccc(Cl)nc2C(=O)NS(C)(=O)=O)c2nc(-c3cnc(C)nc3)n(C)c(=O)c2c1 [Compound 86, (R)-6-chloro-3-((1-(3,6-dimethyl-2-(2-methylpyrimidin-5-yl)-4-oxo-3,4-dihydroquinazolin-8-yl)ethyl)amino)-N-(methylsulfonyl) picolinamide]
≥ 1000	100 to 250	< 250	1000 to 5000	–	–	–	–	–	C[C@@H](Nc1ccc(Cl)nc1C(=O)NS(C)(=O)=O)c1cc(F)cc2c(=O)n(C)c(N3CCc4c(cnn4C)C3)nc12 [Compound 30, (R)-6-chloro-3-((1-(6-fluoro-3-methyl-2-(1-methyl-1,4,6,7-tetrahydro-5H-pyrazolo[4,3-c]pyridin-5-yl)-4-oxo-3,4-dihydroquinazolin-8-yl)ethyl)amino)-N-(methylsulfonyl) picolinamide]
≥ 1000	100 to 250	250 to 500	≥ 5000	–	–	–	–	–	CC(=O)NS(=O)(=O)c1nc(Cl)ccc1N[C@H](C)c1cc(C)cc2c(=O)n(C)c(N3Cc4ccc(F)cc4C3)nc12 [Compound 74, (R)—N-((6-chloro-3-((1-(2-(5-fluoroisoindolin-2-yl)-3,6-dimethyl-4-oxo-3,4-dihydroquinazolin-8-yl)ethyl)amino)pyridin-2-yl)sulfonyl)acetamide]
≥ 1000	250 to 500	< 250	500 to 1000	–	–	–	–	–	C[C@@H](Nc1ccc(Cl)nc1C(=O)NS(C)(=O)=O)c1cc(F)cc2c(=O)n(C)c(N3Cc4cn(C)nc4C3)nc12 [Compound 37, (R)-6-chloro-3-((1-(6-fluoro-3-methyl-2-(2-methyl-2,6-dihydropyrrolo[3,4-c]pyrazol-5(4H)-yl)-4-oxo-3,4-dihydroquinazolin-8-yl)ethyl)amino)-N-(methylsulfonyl) picolinamide]
